Structures are written as SMILES. Where two headings read alike, the source gives them in different places.

What all share (format): cell-based, human
For assay [1], the system named is NFF, neonatal foreskin fibroblasts. Description: Cell survival assay (clonogenic survival, SRB), normal cells. A digest of the protocol:
(§1)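 Cells (5×10^3/well, RPMI 1640 with 10% FCS) treated 24 h with compound at 0.01-10 μg/mL, then washed and grown 72 h drug-free at 37 °C, 5% CO2. Survival read by SRB staining after methylated-spirit fixation, absorbance 564 nm.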

In assay [2] the test system is MM96L melanoma cells. The assay can be described thus: Cell survival assay (clonogenic survival, SRB). A digest of the protocol: as §1
The subject of assay [3] is CI-80-13S ovarian cancer cells. The assay can be described thus: Cell survival assay (SRB). As to conditions: Table 10, standard deviations in parentheses, read-out: Cell line IC50 (μM) C18013S. The procedure: (§2) Cell Lines and Culture Medium. All cell lines used in this study have been described previously (Parsons et al., 1986; Todaro et al., 1980; Glenn et al., 2004). All cell lines were cultured in 10% heat-inactivated foetal calf serum (CSL, Australia) in RPMI 1640 medium supplemented with 100 U/mL penicillin, 100 μg/mL streptomycin, and 3 mM HEPES at 5% CO2, 99% humidity at 37° C. Primary human fibroblasts were obtained from neonatal foreskins and cultured in the above medium. Routine mycoplasma tests were performed using Hoechst stain^i and were always negative.
(§3) Cell Survival Assay. Cells were plated into 96-well microtitre plates at 5×10^3 cells/well, and allowed to adhere overnight. Test compounds were added to culture medium at the indicated concentrations, and plates incubated in the above conditions for 24 hours. Following this incubation period, compounds and media were removed, and replaced with fresh culture medium. Cells were then grown for a further 72 hours before assay using sulforhodamine B (SRB; Sigma, St. Louis, Mo.) as previously described. Briefly, the culture medium was removed from the 96-well microtitre plates and the plates washed twice with phosphate buffered saline (PBS), before the cells were fixed with methylated spirits for 15 minutes. The plates were then rinsed with tap water and the fixed cells stained with 50 μL/well of SRB solution (0.4% sulforhodamine B (w/v) in 1% (v/v) acetic acid) over a period of 1 hour. The SRB solution was then removed from the wells and the plates rapidly washed two times with 1% (v/v) acetic acid. Protein bound dye was then solubilised with the addition of 100 μL of 10 mM unbuffered Tris, and incubated for 15 min at 25° C. Plates were then read at 564 nm on a VERSA max tunable microplate reader (Molecular Devices, Sunnyvale, Calif.).
(§4) For comparison their results are also shown for MM96L and NFF cell lines.

In assay [4] the test system is DO4 melanoma cells. Description: Cell survival assay (SRB). As to conditions: Table 10, standard deviations in parentheses, read-out: Cell line IC50 (μM) DO4. The procedure: as §2, §3, §4
Assay [5] concerns DU145 prostate cancer cells. Description: Cell survival assay (SRB). To be noted: Table 10, standard deviations in parentheses, read-out: Cell line IC50 (μM) DU145. The procedure: as §2, §3, §4
For assay [6], the system named is JAM ovarian cancer cells. Description: Cell survival assay (SRB). To be noted: Table 10, standard deviations in parentheses, read-out: Cell line IC50 (μM) JAM. The procedure: as §2, §3, §4
In assay [7] the test system is MCF-7 breast cancer cells. Description: Cell survival assay (SRB). To be noted: Table 10, standard deviations in parentheses, read-out: Cell line IC50 (μM) MCF7. The procedure:
as §2, §3, §4

The test system of assay [8] is SkMel28 melanoma cells. The assay can be described thus: Cell survival assay (SRB). As to conditions: Table 10, standard deviations in parentheses, read-out: Cell line IC50 (μM) SkMel. The procedure: as §2, §3, §4
The test system of assay [9] is histone deacetylase. Description: Histone hyperacetylation (histone H4, Triton-acetic acid-urea gel) in MM96L cells. To be noted: (figure legends: 5 μg/mL, 8 hours). The procedure: FIG. 1. Acetylation of Histones. […] Lane 1: untreated. Lane 2: compound of example 22 Lane 3: compound of example 40. Lane 4: TSA. Non-acetylated (A), mono-acetylated (B), di-acetylated (C), tri-acetylated (D) and tetra-acetylated (E) histone H4 are indicated.
FIG. 2. Acetylation of histones MM96L cells were treated with 5 μg/ml of various compound for 8 hr, before harvest and analysis of histone H4 acetylation by Triton-acetic acid-urea gel as previously described (Saito et al., 1991; Qiu et al., 1999). Lane 1: untreated: lane 2: Compound of example 73; lane 3: Compound of example 40; lane 4: TSA. Non-acetylated (A), mono-acetylated (B), di-acetylated (C), tri-acetylated (D) and tetra-acetylated (E) histone H4 are indicated.
Histone Hyperacetylation.

[10] abbreviates: Table 5, 24 hours with compound, further growth, SRB, read-out: IC50 NFF.
Setting [11] is: Table 10, standard deviations in parentheses, read-out: Cell line IC50 (μM) NFF.
[12] abbreviates: Table 5, 24 hours with compound, further growth, SRB, read-out: IC50 MM96L.
The mark [13] stands for this setting: Table 5, Selectivity Index = IC50 (NFF)/IC50 (MM96L).
Setting [14] is: Table 10, standard deviations in parentheses, read-out: Cell line IC50 (μM) MM96L.
[15] abbreviates: Table 6, IC50 (NFF)/IC50 (MM96L).
[16] abbreviates: Homo sapiens, Fibroblast, 24 h, Table 6, 24 hours with compound, further growth, SRB, read-out: IC50 (μM) NFF.
The mark [17] stands for this setting: Homo sapiens, Fibroblast, Table 10, standard deviations in parentheses, read-out: Cell line IC50 (μM) NFF.
The mark [18] stands for this setting: Homo sapiens, MM96L, 24 h, Table 6, 24 hours with compound, further growth, SRB, read-out: IC50 (μM) MM96L.
[19] abbreviates: Homo sapiens, MM96L, Table 10, standard deviations in parentheses, read-out: Cell line IC50 (μM) MM96L.

Take `O=C(CCCSC[C@H](NC(=O)c1cc2ccccc2[nH]1)C(=O)NCc1ccccc1)NO` [Example 40]: the IC50 worked out at 0.8 ± 0.2 µM in [1] (setting [10]); 0.8 µM in [1] (setting [11]); 0.13 ± 0.09 µM in assay [2] (setting [12]); 0.13 µM in assay [2] (setting [14]); 0.4 µM in [3]; 1.3 µM in assay [4]. In addition, the IC50 in assay [5] was 0.4 µM; in assay [6] it was 0.75 µM; in assay [7], 0.84 µM; in assay [8], 1.7 µM. This compound also yielded a Selectivity in assay [2] (setting [13]) of 6.2. Moreover, the “acetylation state of histone H4” value in assay [9] is “hyperacetylation of H4”.
Turning to `CN(C)c1ccc(C(=O)N[C@@H](CSCCCC(=O)NO)C(=O)NCc2ccccc2)cc1` [Example 22], the 50% inhibitory concentration (IC50) was found to be 0.35 ± 0.07 µM in assay [1] (setting [10]); 0.35 µM in assay [1] (setting [11]); 0.14 ± 0.09 µM in assay [2] (setting [12]); 0.14 µM in assay [2] (setting [14]); 0.7 µM in [3]; 2 µM in assay [4]. Besides, the half-maximal inhibitory concentration (IC50) in assay [5] was determined as 0.61 µM; in assay [6], 1.24 µM; in [7], 0.59 µM; in assay [8], 3 µM. Further, the Selectivity in assay [2] (setting [13]) amounted to 2.5. For the same compound, the “acetylation state of histone H4” value in [9] is recorded as “hyperacetylation of H4”.
With `CN(C)c1ccc(C(=O)N[C@@H](CSCCCC(=O)NO)C(=O)N[C@H]2c3ccccc3C[C@H]2O)cc1` [Example 70], the IC50 in assay [1] (Table 6, 24 hours with compound, further growth, SRB, read-out: IC50 (μM) NFF) turned out to be 8.2 ± 0.8 µM; in [1] (setting [11]), 8.2 µM; in [2] (Table 6, 24 hours with compound, further growth, SRB, read-out: IC50 (μM) MM96L) it was 0.9 ± 0.05 µM; in assay [2] (setting [14]), 0.9 µM; in assay [3] it was 2.5 µM; in [4], 7.12 µM. Also, the half-inhibitory concentration (IC50) is 3.76 µM in [5], 7.22 µM in assay [6], 3.3 µM in assay [7] and 6.14 µM in assay [8]. Moreover, in assay [2] (setting [15]), the Selectivity is given as 9.1.
On to `CN(C)c1ccc(C(=O)N[C@@H](CSCCCC(=O)NO)C(=O)Nc2cccnc2)cc1` [Example 78], for which the IC50 in assay [1] (setting [16]) worked out at 11 ± 1 µM; in assay [1] (setting [17]), 3.6 µM; in assay [2] (setting [18]), 2.1 ± 0.1 µM; in [2] (setting [19]), 0.51 µM; in [3] (Homo sapiens, C180-13S), 1.36 µM; in assay [4] (Homo sapiens, DO4) it was 2.48 µM. Moreover, the IC50 in assay [5] (Homo sapiens, DU-145) amounted to 1.06 µM; in assay [6] (Homo sapiens) it was 2.3 µM; in assay [7] (Homo sapiens, MCF7), 0.97 µM; in assay [8] (Homo sapiens, SK-MEL-28) it was 2.33 µM. The compound also yielded a Selectivity in assay [2] (setting [15]) of 5.6.
Take `CN(C)c1ccc(NC(=O)[C@H](CSCCCC(=O)NO)NC(=O)c2ccc(N(C)C)cc2)cc1` [Example 59]: the half-inhibitory concentration (IC50) is 0.6 ± 0.1 µM in assay [1] (setting [16]); 0.6 µM in assay [1] (setting [17]); 0.1 ± 0.1 µM in assay [2] (setting [18]); 0.1 µM in assay [2] (setting [19]); at most 0.5 µM in assay [2] (Homo sapiens, MM96L, most preferred compounds, exemplary examples, read-out: potency of IC50 against the MM96 melanoma cells); 0.39 µM in [3] (Homo sapiens, C180-13S). For the same compound, the IC50 was 1.05 µM in assay [4] (Homo sapiens, DO4); 0.33 µM in [5] (Homo sapiens, DU-145); 0.43 µM in assay [6] (Homo sapiens); 0.39 µM in assay [7] (Homo sapiens, MCF7); 1.09 µM in assay [8] (Homo sapiens, SK-MEL-28). Further, in assay [2] (setting [15]), the Selectivity worked out at 6.0.
`O=C(CCCSC[C@H](NC(=O)C(O)(c1ccccc1)c1ccccc1)C(=O)NCc1ccccc1)NO` [Example 44]: the half-maximal inhibitory concentration (IC50) in [1] (setting [10]) was found to be 9.3 ± 0.7 µM; in assay [1] (setting [11]), 0.8 µM; in assay [2] (setting [12]), 1.8 ± 0.2 µM; in assay [2] (setting [14]), 0.2 µM; in assay [3] it was 0.6 µM; in assay [4], 2.1 µM. The IC50 in assay [5] worked out at 1.7 µM; in assay [6], 1.8 µM; in assay [7] it was 0.7 µM; in [8], 2.5 µM. The Selectivity in assay [2] (setting [13]) amounted to 5.2.
In the case of `CN(C)c1ccc(C(=O)N[C@@H](CSCCCC(=O)NO)C(=O)Nc2ccc(-c3ccccc3)cc2)cc1` [Example 61], the IC50 is 0.32 ± 0.05 µM in assay [1] (setting [16]); 0.32 µM in assay [1] (setting [17]); 0.17 ± 0.05 µM in [2] (setting [18]); 0.17 µM in [2] (setting [19]); 0.38 µM in assay [3] (Homo sapiens, C180-13S); 0.83 µM in [4] (Homo sapiens, DO4). Also, the 50% inhibitory concentration (IC50) in assay [5] (Homo sapiens, DU-145) was 0.37 µM; in assay [6] (Homo sapiens), 0.6 µM; in assay [7] (Homo sapiens, MCF7), 0.48 µM; in [8] (Homo sapiens, SK-MEL-28) it was 1.11 µM. In addition, the Selectivity in assay [2] (setting [15]) is listed as 1.9.

The values above are taken from patent publication US20080004290A1, “Anti-Cancer Agents” (THE UNIVERSITY OF QUEENSLAND, priority 2003, published 2008).
